What was measured:
[1] = system: ticks (Haemaphysalis longicornis); test: Dropping application against mouse-infested ticks; format: in vivo; settings: 0.1% w/v solution 200 μL dropwise to whole body surface, 2 days after application
Description: Dropping Application Against Mouse-Infested Ticks (Haemaphysalis longicornis)
The previous day before dropping application, 30 test ticks (Haemaphysalis longicornis, young ticks) were deposited on a mouse. Before the dropping application, uninfested ticks were removed.
The present hydrazide compound (1) (5 mg) was dissolved in a mixture (5 mL) of propylene carbonate and diethylene glycol monoethyl ether in equal amounts to prepare a 0.1% w/v solution. Said solution (200 μL) was applied dropwise to the whole body surface of a mouse with a pipette. To a control group, the mixture (200 μL) alone was applied. Each application was repeated 3 times per group.
Two (2) days after the application, the number of dead ticks was examined and the mortality was calculated by the following formula:
Mortality (%)=100×(number of dead ticks/infested ticks before dropping application)

[2] = system: ticks (Haemaphysalis longicornis); test: Oral administration against mouse-infested ticks; format: in vivo; settings: 20 mg in 10 mL test solution at 10 mL per 1 kg body weight, 2 days after administration
Description: Oral Administration Against Mouse-Infested Ticks (Haemaphysalis longicornis)
The previous day before oral administration, 30 test ticks (Haemaphysalis longicornis, young ticks) were deposited on a mouse. Before the oral administration, uninfested ticks were removed.
(§1) The present hydrazide compound (1) (20 mg) was dissolved in dimethylformamide (680 mg), and thereto a corn oil was added to prepare a test solution (10 mL). Said test solution was orally administered to the mouse at the rate of 10 mL per 1 kg of the body weight of the mouse with a gastric sonde. To a control group, a 7% dimethylformamide/corn oil solution alone was orally administered. Each administration was repeated 3 times per group.
Two (2) days after the administration, the number of dead ticks was examined and the mortality was calculated by the following formula:
Mortality (%)=100×(number of dead ticks/infested ticks before oral administration)

[3] = system: cat fleas (Ctenocephalides felis); test: Oral administration against mouse-infested cat fleas; format: in vivo; settings: 20 mg in 10 mL test solution at 10 mL per 1 kg body weight, fleas deposited after administration, 2 days later
Description: Oral Administration Against Mouse-Infested Cat Fleas (Ctenocephalides Felis)
as §1, with “at a” for “at the”
After the oral administration, 20 cat fleas were deposited on each mouse. Two (2) days later, the number of cat fleas was examined and the mortality was calculated by the following formula:
Mortality (%)=100×(number of dead cat fleas/number of cat fleas tested)

[4] = system: ticks (Haemaphysalis longicornis); test: Dropping application against dog-infested ticks; format: in vivo
Description: Dropping Application Against Dog-Infested Ticks (Haemaphysalis longicornis)
(§2) Each (0.375 or 1.5 g) of the present hydrazide compound (1) and Comparative compound (52) was dissolved in diethylene glycol monoethyl ether (6.0 g) to prepare a test solution. Said test solution was directly dropped on the skin of the neck and back of the dog while pushing aside fur thereon at a rate of 0.1 ml per 1 kg of the dog's body weight (dose amount: 5 or 20 mg/kg). This is referred to as a test group. On the other hand, diethylene glycol monoethyl ether alone was applied dropwise to a placebo group.
Twenty eight (28) days later, 100 test ticks were deposited on each dog. Two (2) days after the deposit, the number of living ticks, which were infesting the dogs, was examined. When the examination was completed, all infested ticks were removed from the dogs. The infestation rate and control rate were calculated by the following formulae: […]
Method of calculating infestation rate and control rate at 30 days after the application:
Infestation rate (%) at X days after application=(number of living ticks at X days/number of ticks deposited)×100
(§3) Control rate (%) at X days after application=(infestation rate of placebo group at X days−infestation rate of test group at X days)/infestation rate of placebo group at X days×100
(§4) In addition, if an infestation rate of a test group is higher than a placebo group, then the control rate is deemed to be 0%.

[5] = system: ticks (Haemaphysalis longicornis); test: Oral administration against dog-infested ticks; format: in vivo; settings: dog (beagle), oral gelatin capsules
Description: Oral Administration Against Dog-Infested Ticks (Haemaphysalis longicornis)
The previous day before oral administration, 100 test ticks (Haemaphysalis longicornis, young ticks) were deposited on a dog (beagle). Before the oral administration, infested ticks were counted.
Each of the present hydrazide compound (1) and Comparative compound (52) was filled into gelatin capsules, and forcibly and orally administered to a dog in a dose amount of 5 mg or 20 mg per 1 kg of the dog's body weight. This is referred to as a test group. On the other hand, gelatin capsules alone was orally administered to a placebo group.
Two (2) days after the administration, the number of living ticks, which were infesting the dogs, was examined.
When the examination was completed, all infested ticks were removed from the dogs. The infestation rate and control rate were calculated by the following formulae: […]
Method of calculating infestation rate and control rate at the initial stage (2 days) after the administration:
Infestation rate (%) at X days after administration=(number of living ticks at X days/number of living ticks before administration)×100
Control rate (%) at X days after administration (infestation rate of test group before administration−infestation rate of test group at X days)/infestation rate of test group before administration×100
as §4

[6] = system: cat fleas (Ctenocephalides felis); test: Dropping application against cat-infested cat fleas; format: in vivo
Description: Dropping Application Against Cat-Infested Cat Fleas (Ctenocephalides felis)
The previous day before dropping application, 50 test fleas (cat flea adults) were deposited on a cat. Before the dropping application, infested fleas were counted.
as §2, with “Each (0.75” for “Each (0.375”, “the cat” for “the dog”, “thereon on” for “thereon”, “the cat's” for “the dog's”, “amount: 10” for “amount: 5”
Two (2) days after the application, the number of living fleas, which were infesting the cats, was examined. When the examination was completed, all infested fleas were removed from the cats.
(§5) Twenty eight (28) days later, 50 test fleas were re-deposited on each cat. Two (2) days after the re-deposit, the number of living fleas, which were infesting the cats, was examined. When the examination was completed, all infested fleas were removed from the cats. The infestation rate and control rate were calculated by the following formulae: […]
(i) Method of calculating infestation rate and control rate at the initial stage (2 days) after the application:
Infestation rate (%) at X days after application=(number of living fleas at X days/number of living fleas before application)×100
Control rate (%) at X days after application=(infestation rate of test group before application−infestation rate of test group at X days)/infestation rate of test group before application×100
(ii) Method of calculating infestation rate and control rate at 30 days after the application:
Infestation rate (%) at X days after application=(number of living fleas at X days/number of fleas deposited)×100
as §3, §4

[7] = system: cat fleas (Ctenocephalides felis); test: Oral administration against cat-infested cat fleas; format: in vivo; settings: oral with cat food, dose 20 mg/kg
Description: Oral Administration Against Cat-Infested Cat Fleas (Ctenocephalides felis)
Each of the present hydrazide compound (1) and Comparative compound (52) was mixed with a cat food, and orally administered to a cat in a dose amount of 20 mg per 1 kg of the cat's body weight. This is referred to as a test group. On the other hand, the cat food alone was fed to a placebo group.
as §5, with “Forty two (42)” for “Twenty eight (28)”, “deposited” for “re-deposited”, “deposit,” for “re-deposit,”
Method of calculating infestation rate and control rate at 44 days after the administration:
Infestation rate (%) at X days after administration=(number of living fleas at X days/number of fleas deposited)×100
Control rate (%) at X days after administration=(infestation rate of placebo group at X days−infestation rate of test group at X days)/infestation rate of placebo group at X days×100
as §4

[8] = system: ticks (Haemaphysalis longicornis); test: Pesticidal activity on ticks in filter paper test; settings: 48 h, 100 mg/m^2, non-blood-fed young ticks, 2 days
Description: Pesticidal Activity on Ticks (Haemaphysalis longicornis) in Filter Paper Test
Each (5 mg) of the present hydrazide compounds (1) and (2) was dissolved in acetone (10 mL), and this acetone solution (1 mL) was uniformly applied onto one side of a filter paper (TOYO No. 2; 5×10 cm; the surface area of the filter paper was 50 cm^2, and thus the amount of the present hydrazide compound applied was 100 mg/m^2). After drying, said filter paper was folded, and the both sides of the paper were clipped to form a bag. Into this bag, test ticks (Haemaphysalis longicornis, non-blood-fed young ticks, 10 ticks/group) were added, and the opening was clipped to seal the bag. Two (2) days later, the number of dead ticks was examined and the mortality was calculated by the following formula:
Mortality (%)=100×(number of dead ticks/number of ticks tested)

SMILES | Mortality [1] | Mortality [2] | Mortality [3] | Tick control rates (%) at 30 days after the application ([4]; dose 5 mg/kg) | Tick control rates (%) at 30 days after the application ([4]; dose 20 mg/kg) | Tick control rates (%) at 2 days after the application ([5]; dose 5 mg/kg) | Tick control rates (%) at 2 days after the application ([5]; dose 20 mg/kg) | Flea control rates (%) at 2 days after the application ([6]; dose 10 mg/kg) | Flea control rates (%) at 30 days after the application ([6]; dose 10 mg/kg) | Flea control rates (%) at 2 days after the application ([6]; dose 20 mg/kg) | Flea control rates (%) at 30 days after the application ([6]; dose 20 mg/kg) | Flea control rates (%) at 44 days after the administration [7] | mortality at 100 mg/m2 [8]
O=C(NNc1cc(C2=NOC(c3cc(Cl)cc(Cl)c3)(C(F)(F)F)C2)ccc1Cl)C1CC1 (stereo not drawn) [Compound (1), N′-{2-chloro-5-[5-(3,5-dichlorophenyl)-5-trifluoromethyl-4,5-dihydroisoxazol-3-yl]phenyl}cyclopropanecarbohydrazide] | ≥ 70% | ≥ 90% | ≥ 90% | 100% | 100% | 100% | 100% | 92% | 84% | 96% | 94% | 94% | 
CN(NC(=O)C1CC1)c1cc(C2=NOC(c3cc(Cl)cc(Cl)c3)(C(F)(F)F)C2)ccc1Cl (stereo not drawn) [(2), N′-methyl-N′-{2-chloro-5-[5-(3,5-dichlorophenyl)-5-trifluoromethyl-4,5-dihydroisoxazol-3-yl]phenyl}cyclopropanecarbohydrazide] |  |  |  |  |  |  |  |  |  |  |  |  | ≥ 90%
CC(=O)NNc1cc(C2=NOC(c3cc(Cl)cc(Cl)c3)(C(F)(F)F)C2)ccc1Cl (stereo not drawn) [Comparative compound (52), N′-{5-[5-(3,5-dichlorophenyl)-5-trifluoromethyl-4,5-dihydroisoxazol-3-yl]-2-chlorophenyl}acetohydrazide, reference compound] |  |  |  | 29% |  | 26% |  | 58% | 74% |  |  | 68% | 
